Values of other authors, collected in patent US20240050531A1, “A METHOD FOR REVERSING AGING BRAIN FUNCTIONAL DECLINE” (THE CHINESE UNIVERSITY OF HONG KONG, priority 2020, published 2024).
Where two headings read alike, the source gives them in different places.

Columns and labels:
[1] = intraperitoneal (i.p.) injection
GLP-1R = molecular target: T1, GLP-1R (Rattus norvegicus, UniProt P32301)
T1 construct: host or cells: living rats (8 weeks old), endogenous receptor
T1 sequence (P32301 22-463): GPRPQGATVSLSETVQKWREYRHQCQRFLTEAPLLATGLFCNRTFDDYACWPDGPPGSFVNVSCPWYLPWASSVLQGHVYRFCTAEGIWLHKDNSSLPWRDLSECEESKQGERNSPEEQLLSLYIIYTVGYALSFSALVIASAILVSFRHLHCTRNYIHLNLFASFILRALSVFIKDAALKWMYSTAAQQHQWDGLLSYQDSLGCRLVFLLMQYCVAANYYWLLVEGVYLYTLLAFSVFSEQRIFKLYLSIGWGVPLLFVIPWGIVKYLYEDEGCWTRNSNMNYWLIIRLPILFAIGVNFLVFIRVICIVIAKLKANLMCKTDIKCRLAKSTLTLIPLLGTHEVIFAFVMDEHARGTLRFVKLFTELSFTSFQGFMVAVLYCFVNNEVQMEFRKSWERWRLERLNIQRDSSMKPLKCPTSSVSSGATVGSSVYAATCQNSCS

| associative and spatial learning (GLP-1R; intracerebroventricular (i.c.v) administration, 8 weeks old rats) | associative and spatial learning (GLP-1R; peripheral administration) | Substance | hippocampus-associated reference memory performance [1] | immobility in the forced swim test [1] |
| --- | --- | --- | --- | --- |
| – | – | exendin-4 | improves | decreases immobility |
| enhance associative and spatial learning | also active | [Ser(2)]exendin(1-9) | – | – |
